Results on four cell lines are retold here after the supplement of paper PMC10307832.

Holding throughout (assay): relative viability (nuclei count vs DMSO), 5 days (fraction); higher = more cells survive
Compound in the test “Alisertib + Trametinib”: COc1cc(Nc2ncc3c(n2)-c2ccc(Cl)cc2C(c2c(F)cccc2OC)=NC3)ccc1C(=O)O [Alisertib] + CC(=O)Nc1cccc(-n2c(=O)n(C3CC3)c(=O)c3c(Nc4ccc(I)cc4F)n(C)c(=O)c(C)c32)c1 [Trametinib] (partner 0.02 µM)
An outline of the steps:
(§1)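 One day after seeding in 1536-well plates, lung cancer cell lines were dosed by pin tool. Dosing was either single-drug or a fixed anchor-drug dose plus five library-drug doses (not always all listed) in √10 steps. After 5 days, nuclei were stained in one fix-and-stain step and counted on 4× images, and relative viability is the nuclei count of treated wells over that of vehicle wells, given as the median of duplicate plates.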

Compound in the test “Alisertib + Navitoclax”: COc1cc(Nc2ncc3c(n2)-c2ccc(Cl)cc2C(c2c(F)cccc2OC)=NC3)ccc1C(=O)O [Alisertib] + CC1(C)CCC(c2ccc(Cl)cc2)=C(CN2CCN(c3ccc(C(=O)NS(=O)(=O)c4ccc(N[C@H](CCN5CCOCC5)CSc5ccccc5)c(S(=O)(=O)C(F)(F)F)c4)cc3)CC2)C1 [Navitoclax] (partner 0.5 µM)
In outline: as §1

Compound in the test “Alisertib + Phenformin”: COc1cc(Nc2ncc3c(n2)-c2ccc(Cl)cc2C(c2c(F)cccc2OC)=NC3)ccc1C(=O)O [Alisertib] + N=C(N)NC(=N)NCCc1ccccc1 [Phenformin] (partner 250 µM)
An outline of the steps: as §1

Compound in the test “Alisertib + Pemetrexed”: COc1cc(Nc2ncc3c(n2)-c2ccc(Cl)cc2C(c2c(F)cccc2OC)=NC3)ccc1C(=O)O [Alisertib] + Nc1nc2[nH]cc(CCc3ccc(C(=O)N[C@@H](CCC(=O)O)C(=O)O)cc3)c2c(=O)[nH]1 [Pemetrexed] (partner 0.2 µM)
An outline of the steps: as §1

Take PC-14: the relative viability stood at 0.757 in the test with Alisertib + Trametinib (first compound 0.005 µM); 0.56 in the test with Alisertib + Trametinib (first compound 0.01581 µM); 0.385 in the test with Alisertib + Trametinib (first compound 0.05 µM); 0.234 with Alisertib + Trametinib (first compound 0.1581 µM); 0.0465 with Alisertib + Trametinib (first compound 0.5 µM); 0.924 with Alisertib + Navitoclax (first compound 0.005 µM). The relative viability with Alisertib + Navitoclax (first compound 0.01581 µM) was 0.881; with Alisertib + Navitoclax (first compound 0.05 µM), 0.663; with Alisertib + Navitoclax (first compound 0.1581 µM) it was 0.362; in the test with Alisertib + Navitoclax (first compound 0.5 µM), 0.0849; with Alisertib + Phenformin (first compound 0.005 µM) it was 0.481; with Alisertib + Phenformin (first compound 0.01581 µM), 0.453. In addition, the relative viability was 0.363 with Alisertib + Phenformin (first compound 0.05 µM); 0.0963 with Alisertib + Phenformin (first compound 0.1581 µM); 0.0647 with Alisertib + Phenformin (first compound 0.5 µM); 0.103 with Alisertib + Pemetrexed (first compound 0.005 µM); 0.138 in the test with Alisertib + Pemetrexed (first compound 0.01581 µM); 0.146 in the test with Alisertib + Pemetrexed (first compound 0.05 µM). The relative viability with Alisertib + Pemetrexed (first compound 0.1581 µM) turned out to be 0.0731; in the test with Alisertib + Pemetrexed (first compound 0.5 µM), 0.052.

With UMC-11, the relative viability was found to be 0.344 with Alisertib + Trametinib (first compound 0.005 µM); 0.246 with Alisertib + Trametinib (first compound 0.01581 µM); 0.15 with Alisertib + Trametinib (first compound 0.05 µM); 0.148 with Alisertib + Trametinib (first compound 0.1581 µM); 0.185 with Alisertib + Trametinib (first compound 0.5 µM); 0.241 with Alisertib + Navitoclax (first compound 0.005 µM). Further, the relative viability in the test with Alisertib + Navitoclax (first compound 0.01581 µM) came to 0.163; with Alisertib + Navitoclax (first compound 0.05 µM), 0.121; with Alisertib + Navitoclax (first compound 0.1581 µM) it was 0.115; with Alisertib + Navitoclax (first compound 0.5 µM) it was 0.125; in the test with Alisertib + Phenformin (first compound 0.005 µM), 0.235; with Alisertib + Phenformin (first compound 0.01581 µM) it was 0.192. Besides, the relative viability came to 0.176 with Alisertib + Phenformin (first compound 0.05 µM); 0.174 in the test with Alisertib + Phenformin (first compound 0.1581 µM); 0.164 in the test with Alisertib + Phenformin (first compound 0.5 µM); 0.602 with Alisertib + Pemetrexed (first compound 0.005 µM); 0.26 in the test with Alisertib + Pemetrexed (first compound 0.01581 µM); 0.196 with Alisertib + Pemetrexed (first compound 0.05 µM). The values for the relative viability in the test with Alisertib + Pemetrexed (first compound 0.1581 µM) and with Alisertib + Pemetrexed (first compound 0.5 µM) were 0.18 and 0.175, respectively.

Regarding PC-3 [JPC-3], the relative viability in the test with Alisertib + Trametinib (first compound 0.005 µM) amounted to 0.669; with Alisertib + Trametinib (first compound 0.01581 µM), 0.649; with Alisertib + Trametinib (first compound 0.05 µM) it was 0.591; with Alisertib + Trametinib (first compound 0.1581 µM) it was 0.526; with Alisertib + Trametinib (first compound 0.5 µM), 0.493; with Alisertib + Navitoclax (first compound 0.005 µM), 0.757. In addition, the relative viability in the test with Alisertib + Navitoclax (first compound 0.01581 µM) stood at 0.79; with Alisertib + Navitoclax (first compound 0.05 µM) it was 0.401; with Alisertib + Navitoclax (first compound 0.1581 µM) it was 0.306; in the test with Alisertib + Navitoclax (first compound 0.5 µM), 0.281; with Alisertib + Phenformin (first compound 0.005 µM) it was 0.488; in the test with Alisertib + Phenformin (first compound 0.01581 µM) it was 0.456. Moreover, the relative viability with Alisertib + Phenformin (first compound 0.05 µM) worked out at 0.484; in the test with Alisertib + Phenformin (first compound 0.1581 µM), 0.377; in the test with Alisertib + Phenformin (first compound 0.5 µM), 0.293; in the test with Alisertib + Pemetrexed (first compound 0.005 µM) it was 1.06; with Alisertib + Pemetrexed (first compound 0.01581 µM), 0.988; in the test with Alisertib + Pemetrexed (first compound 0.05 µM), 0.885. For the same cell line, the relative viability with Alisertib + Pemetrexed (first compound 0.1581 µM) was determined as 0.388; in the test with Alisertib + Pemetrexed (first compound 0.5 µM), 0.287.

LK-2: the relative viability came to 0.746 with Alisertib + Trametinib (first compound 0.005 µM); 0.677 with Alisertib + Trametinib (first compound 0.01581 µM); 0.522 in the test with Alisertib + Trametinib (first compound 0.05 µM); 0.25 in the test with Alisertib + Trametinib (first compound 0.1581 µM); 0.183 with Alisertib + Trametinib (first compound 0.5 µM); 0.859 with Alisertib + Navitoclax (first compound 0.005 µM). Also, the relative viability in the test with Alisertib + Navitoclax (first compound 0.01581 µM) is 0.722; with Alisertib + Navitoclax (first compound 0.05 µM), 0.356; in the test with Alisertib + Navitoclax (first compound 0.1581 µM) it was 0.181; in the test with Alisertib + Navitoclax (first compound 0.5 µM), 0.225; with Alisertib + Phenformin (first compound 0.005 µM), 0.38; with Alisertib + Phenformin (first compound 0.01581 µM) it was 0.385. For the same cell line, the relative viability in the test with Alisertib + Phenformin (first compound 0.05 µM) was 0.179; with Alisertib + Phenformin (first compound 0.1581 µM), 0.149; with Alisertib + Phenformin (first compound 0.5 µM), 0.163; in the test with Alisertib + Pemetrexed (first compound 0.005 µM), 0.286; with Alisertib + Pemetrexed (first compound 0.01581 µM), 0.236; with Alisertib + Pemetrexed (first compound 0.05 µM) it was 0.188. In addition, the relative viability in the test with Alisertib + Pemetrexed (first compound 0.1581 µM) is 0.141; with Alisertib + Pemetrexed (first compound 0.5 µM) it was 0.148.
